From ChEMBL document CHEMBL3044724, “Differential efficacy of three commonly used pyrethroids against laboratory and field-collected larvae and adults of Helicoverpa zea (Lepidoptera: Noctuidae) and significance for pyrethroid resistance management” (2010)

What was measured:
Format in all cases: functional
Helicoverpa zea [1] = assay: Resistant ratio, ratio of LC50 for F1 generation of adult of Helicoverpa zea (corn earworm) to LC50 for adult of corn earworm
Helicoverpa zea [2] = assay: Insecticidal activity against third-instar of Helicoverpa zea (corn earworm) assessed as mortality per insecticide vial after 48 hr
Helicoverpa zea [3] = assay: Resistant ratio, ratio of LC90 for F1 generation of third-instar of Helicoverpa zea (corn earworm) to LC90 for third-instar of corn earworm
Helicoverpa zea [4] = assay: Insecticidal activity against F1 generation of adult of Helicoverpa zea (corn earworm) assessed as mortality per insecticide vial after 24 hr
Helicoverpa zea [5] = assay: Resistant ratio, ratio of LC90 for F1 generation of adult of Helicoverpa zea (corn earworm) to LC90 for adult of corn earworm
Helicoverpa zea [6] = assay: Resistant ratio, ratio of LC50 for F1 generation of third-instar of Helicoverpa zea (corn earworm) to LC50 for third-instar of corn earworm
Helicoverpa zea [7] = assay: Insecticidal activity against adult of Helicoverpa zea (corn earworm) assessed as mortality per insecticide vial after 24 hr
Helicoverpa zea [8] = assay: Insecticidal activity against F1 generation of third-instar of Helicoverpa zea (corn earworm) assessed as mortality per insecticide vial after 48 hr

Compound	RatioLC50 (Helicoverpa zea [1])	LC50 (Helicoverpa zea [2]) [µg]	LC90 (Helicoverpa zea [2]) [µg]	Ratio (Helicoverpa zea [3])	LC50 (Helicoverpa zea [4]) [µg]	LC90 (Helicoverpa zea [4]) [µg]	Ratio (Helicoverpa zea [5])	RatioLC50 (Helicoverpa zea [6])	LC50 (Helicoverpa zea [7]) [µg]	LC90 (Helicoverpa zea [7]) [µg]	LC50 (Helicoverpa zea [8]) [µg]	LC90 (Helicoverpa zea [8]) [µg]
CC(C)[C@H](C(=O)O[C@H](C#N)c1cccc(Oc2ccccc2)c1)c1ccc(Cl)cc1	4.67	0.4	1.45	3.17	2.3	5.9	4.37	3.75	0.49	1.35	1.51	4.59
CC1(C)C(C=C(Cl)Cl)C1C(=O)OC(C#N)c1cccc(Oc2ccccc2)c1 (stereo not drawn) [ALPHA-CYPERMETHRIN]	4.16	0.37	1.22	6.28	2.89	7.12	3.82	4.68	0.7	1.86	1.71	7.68
Cc1c(COC(=O)[C@@H]2[C@H](/C=C(\Cl)C(F)(F)F)C2(C)C)cccc1-c1ccccc1 [BIFENTHRIN]	9.28	0.13	0.38	15.22	1.54	3.01	5.9	9.41	0.17	0.51	1.25	5.8
